Data on one molecule can be found in publication PMC12593154, “Overcoming Solubility Challenges: Micronization of Berberine Using the GAS Antisolvent Technique” (ACS Omega, 2025).

Series [1] is described as follows: Solubility analysis of berberine in organic solvents (excess compound, 24 h agitation, spectrophotometer). As to conditions: organic solvent or mixture, thermodynamic from solid. Type of series: physicochemical. How it is done: The solubility study of the compound in different solvents was carried out. Acetone, ethanol, methanol, 1-propanol, 1-butanol, and dichloromethane were used. An excess compound was added to 100 mL of solvent at 25 and 35 °C. The solution was agitated at 100 rpm for 24 h to achieve solid–liquid equilibrium. It was then left for 2 h without stirring to allow the sedimentation of the insolubilized particles. An aliquot was taken and analyzed with a spectrophotometer.

A short description of series [2]: Particle size by scanning electron microscopy (length and width of 200 particles). Type of series: physicochemical. As to conditions: SEM, GAS at 35 °C, 80 bar. Here is the method:
Berberine was micronized using the antisolvent gas technique based on the studies of Pessoa et al. (2019) and Sakata et al. (2021). First, the solution was prepared at 1 mg/mL with the selected solvents and then added to the cell. The CO2 was introduced into the cell at a flow rate of 10 and 20 mL/min until the pressure reached 80 bar, with an operating temperature of 35 °C. The mixture was held at 80 bar for 10 min for homogenization. The solvent was removed by passing CO2 at constant pressure with open inlet and outlet valves. Once all the solvent had been removed, the reaction cell was depressurized, and the particles were collected.
Morphology and particle size were examined by scanning electron microscopy (JEOL JSM-6390LV.). Length and width measurements of 200 particles were obtained for each sample using Size Meter Software (version 1.1).

The mark [3] stands for this setting: listed as Nonmicronized berberine.

As a reminder, the solubility is the concentration that dissolves in the medium under given conditions.

As to `COc1ccc2cc3[n+](cc2c1OC)CCc1cc2c(cc1-3)OCO2` [Berberine, Berberine chloride], the solubility at 24 h in series [1] (1-butanol, 25 °C) came to 5.4 ± 0.578 µg/mL; in series [1] (1-propanol, 25 °C) it was 3 ± 0.168 µg/mL; in series [1] (1-propanol, 35 °C), 4.33 ± 0.082 µg/mL; in series [1] (acetone, 25 °C) it was 0.16 ± 0.004 µg/mL; in series [1] (acetone, 35 °C), 0.2 ± 0.007 µg/mL; in series [1] (dichloromethane, 25 °C), 1.27 ± 0.032 µg/mL. For the same molecule, the solubility at 24 h worked out at 3.47 ± 0.091 µg/mL in series [1] (dichloromethane, 35 °C); 2.82 ± 0.086 µg/mL in series [1] (ethanol, 25 °C); 4.57 ± 0.254 µg/mL in series [1] (ethanol, 35 °C); 15.4 ± 1.61 µg/mL in series [1] (methanol, 25 °C); 35 ± 1.98 µg/mL in series [1] (methanol, 35 °C). The figures for the “particle size, length” value in series [2] (setting [3]) and in series [2] (listed as Raw) were 13.24 μm and 13.24 ± 8.66 μm, respectively. The results for the “particle size, width” value in series [2] (setting [3]) and in series [2] (listed as Raw) were 6.39 μm and 6.39 ± 5.39 μm, respectively.
